In patent US20260262643A1, “HERBICIDAL BENZOXAZINES” (FMC CORPORATION, priority 2022, published 2026):

Assays:
green foxtail [1] = assay: Test C postemergence; type: in vivo, Setaria viridis; details: postemergence, 10 days
In short: (§1)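 Seeds sown in loam soil–sand blend received a directed preemergence soil spray of test chemical in non-phytotoxic solvent with surfactant; postemergence plants (2–10 cm, one- to two-leaf stage) were sprayed with the same formulation. Greenhouse-held 10 days, then visually rated for injury versus untreated controls, 0 (no effect) to 100 (complete control).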

green foxtail [2] = assay: Test C preemergence; type: in vivo, Setaria viridis; details: preemergence, 0 to 100 scale (0 no effect, 100 complete control)
In short: as §1

ragweed [3] = assay: Test C preemergence; type: in vivo, Ambrosia artemisiifolia; details: preemergence, 0 to 100 scale (0 no effect, 100 complete control)
In short: as §1

oat, wild [4] = assay: Test C postemergence; type: in vivo, Avena fatua; details: postemergence, 10 days
In short: as §1

corn [5] = assay: Test C preemergence; type: in vivo, Zea mays; details: preemergence, 0 to 100 scale (0 no effect, 100 complete control)
In short: as §1

blackgrass [6] = assay: Test C preemergence; type: in vivo, Alopecurus myosuroides; details: preemergence, 0 to 100 scale (0 no effect, 100 complete control)
In short: as §1

corn [7] = assay: Test C postemergence; type: in vivo, Zea mays; details: postemergence, 10 days
In short: as §1

ragweed [8] = assay: Test C postemergence; type: in vivo, Ambrosia artemisiifolia; details: postemergence, 10 days
In short: as §1

rice = assay: Test D flooded paddy test; type: in vivo, Oryza sativa; details: 250 g ai/ha, applied to paddy water, visual rating after 13 to 14 days, scale 0 to 100 (0 no effect, 100 complete control)
In short: (§2)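 Post-flood water application at the 2-leaf stage; 3 cm flood depth kept constant; visual control rating 0–100 after 13–14 days greenhouse growth.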

soybean [9] = assay: Test C preemergence; type: in vivo, Glycine max; details: preemergence, 0 to 100 scale (0 no effect, 100 complete control)
In short: as §1

ryegrass, Italian [10] = assay: Test C postemergence; type: in vivo, Lolium multiflorum; details: postemergence, 10 days
In short: as §1

horseweed = assay: Test C postemergence; type: in vivo, Erigeron canadensis; details: postemergence, 10 days
In short: as §1

wheat [11] = assay: Test C postemergence; type: in vivo, Triticum aestivum; details: postemergence, 10 days
In short: as §1

ducksalad = assay: Test D flooded paddy test; type: in vivo, Heteranthera limosa; details: 250 g ai/ha, applied to paddy water, visual rating after 13 to 14 days, scale 0 to 100 (0 no effect, 100 complete control)
In short: as §2

galium = assay: Test C postemergence; type: in vivo, Galium aparine; details: postemergence, 10 days
In short: as §1

pigweed, palmer [12] = assay: Test C postemergence; type: in vivo, Amaranthus palmeri; details: postemergence, 10 days
In short: as §1

oat, wild [13] = assay: Test C preemergence; type: in vivo, Avena fatua; details: preemergence, 0 to 100 scale (0 no effect, 100 complete control)
In short: as §1

sedge, umbrella = assay: Test D flooded paddy test; type: in vivo, Cyperus difformis; details: 250 g ai/ha, applied to paddy water, visual rating after 13 to 14 days, scale 0 to 100 (0 no effect, 100 complete control)
In short: as §2

kochia [14] = assay: Test C preemergence; type: in vivo, Bassia scoparia; details: preemergence, 0 to 100 scale (0 no effect, 100 complete control)
In short: as §1

barnyardgrass [15] = assay: Test D flooded paddy test; type: in vivo, Echinochloa crus-galli; details: 250 g ai/ha, applied to paddy water, visual rating after 13 to 14 days, scale 0 to 100 (0 no effect, 100 complete control)
In short: as §2

soybean [16] = assay: Test C postemergence; type: in vivo, Glycine max; details: postemergence, 10 days
In short: as §1

pigweed, palmer [17] = assay: Test C preemergence; type: in vivo, Amaranthus palmeri; details: preemergence, 0 to 100 scale (0 no effect, 100 complete control)
In short: as §1

barnyardgrass [18] = assay: Test C preemergence; type: in vivo, Echinochloa crusgalli; details: preemergence, 0 to 100 scale (0 no effect, 100 complete control)
In short: as §1

kochia [19] = assay: Test C postemergence; type: in vivo, Bassia scoparia; details: postemergence, 10 days
In short: as §1

wheat [20] = assay: Test C preemergence; type: in vivo, Triticum aestivum; details: preemergence, 0 to 100 scale (0 no effect, 100 complete control)
In short: as §1

ryegrass, Italian [21] = assay: Test C preemergence; type: in vivo, Lolium multiflorum; details: preemergence, 0 to 100 scale (0 no effect, 100 complete control)
In short: as §1

barnyardgrass [22] = assay: Test C postemergence; type: in vivo, Echinochloa crusgalli; details: postemergence, 10 days
In short: as §1

blackgrass [23] = assay: Test C postemergence; type: in vivo, Alopecurus myosuroides; details: postemergence, 10 days
In short: as §1

[24] = 125 g ai/ha, 0 to 100 scale, 0 no effect, 100 complete control
[25] = 500 g ai/ha, 0 to 100 scale (0 no effect, 100 complete control)

## Cc1cccc2c1O[C@@H](C)CN2C(=O)c1cccc(-n2cnc(N(C)S(C)(=O)=O)n2)c1 [Compound 299]
Green foxtail [1]; [24]
  Plant response rating, Foxtail, Green: 10
Green foxtail [1]; [25]
  Plant response rating, Foxtail, Green: 40
Green foxtail [2]; 500 g ai/ha
  Foxtail, Green plant response rating: 100
Green foxtail [2]; Test C, 125 g ai/ha
  Foxtail, Green plant response rating: 60
Ragweed [3]; 500 g ai/ha
  Ragweed plant response rating: 100
Ragweed [3]; Test C, 125 g ai/ha
  Ragweed plant response rating: 70
oat, wild [4]; [24]
  Plant response rating, Oat, Wild: 20
oat, wild [4]; [25]
  Plant response rating, Oat, Wild: 60
Corn [5]; 500 g ai/ha
  Corn plant response rating: 30
Corn [5]; Test C, 125 g ai/ha
  Corn plant response rating: 0
Blackgrass [6]; 500 g ai/ha
  Blackgrass plant response rating: 70
Blackgrass [6]; Test C, 125 g ai/ha
  Blackgrass plant response rating: 30
Corn [7]; [24]
  Plant response rating, Corn: 10
Corn [7]; [25]
  Plant response rating, Corn: 20
Ragweed [8]; [24]
  Plant response rating, Ragweed: 0
Ragweed [8]; [25]
  Plant response rating, Ragweed: 0
rice
  Plant response rating, Rice (Flood): 0
Soybean [9]; 500 g ai/ha
  Soybean plant response rating: 0
Soybean [9]; Test C, 125 g ai/ha
  Soybean plant response rating: 0
ryegrass, Italian [10]; [24]
  Plant response rating, Ryegrass, Italian: 70
ryegrass, Italian [10]; [25]
  Plant response rating, Ryegrass, Italian: 90
horseweed; [24]
  Plant response rating, Horseweed: 10
horseweed; [25]
  Plant response rating, Horseweed: 30
Wheat [11]; [24]
  Plant response rating, Wheat: 20
Wheat [11]; [25]
  Plant response rating, Wheat: 40
ducksalad
  Plant response rating, Ducksalad (Flood): 95
galium; [24]
  Plant response rating, Galium: 80
galium; [25]
  Plant response rating, Galium: 90
pigweed, palmer [12]; [24]
  Plant response rating, Pigweed, Palmer: 40
pigweed, palmer [12]; [25]
  Plant response rating, Pigweed, Palmer: 60
oat, wild [13]; 500 g ai/ha
  Oat, Wild plant response rating: 90
oat, wild [13]; Test C, 125 g ai/ha
  Oat, Wild plant response rating: 0
sedge, umbrella
  Plant response rating, Sedge, Umbrella (Flood): 25
Kochia [14]; 500 g ai/ha
  Kochia plant response rating: 80
Kochia [14]; Test C, 125 g ai/ha
  Kochia plant response rating: 0
Barnyardgrass [15]
  Plant response rating, Barnyardgrass (Flood): 0
Soybean [16]; [24]
  Plant response rating, Soybean: 60
Soybean [16]; [25]
  Plant response rating, Soybean: 100
pigweed, palmer [17]; 500 g ai/ha
  Pigweed, Palmer plant response rating: 90
pigweed, palmer [17]; Test C, 125 g ai/ha
  Pigweed, Palmer plant response rating: 50
Barnyardgrass [18]; 500 g ai/ha
  Barnyardgrass plant response rating: 80
Barnyardgrass [18]; Test C, 125 g ai/ha
  Barnyardgrass plant response rating: 10
Kochia [19]; [24]
  Plant response rating, Kochia: 10
Kochia [19]; [25]
  Plant response rating, Kochia: 70
Wheat [20]; 500 g ai/ha
  Wheat plant response rating: 30
Wheat [20]; Test C, 125 g ai/ha
  Wheat plant response rating: 0
ryegrass, Italian [21]; 500 g ai/ha
  Ryegrass, Italian plant response rating: 90
ryegrass, Italian [21]; Test C, 125 g ai/ha
  Ryegrass, Italian plant response rating: 70
Barnyardgrass [22]; [24]
  Plant response rating, Barnyardgrass: 10
Barnyardgrass [22]; [25]
  Plant response rating, Barnyardgrass: 50
Blackgrass [23]; [24]
  Plant response rating, Blackgrass: 20
Blackgrass [23]; [25]
  Plant response rating, Blackgrass: 90
